What was measured:
BZω3 receptor = target: T1, BZω3 receptor (Rattus norvegicus, UniProt P16257); test: BZω3 (peripheral) benzodiazepine receptor binding assay, [3H] 4'-chlorodiazepam (Ro 5-4864); conditions: rat kidney membrane, [3H] Ro 5-4864 0.5 nM, 150 minutes at 0° C.; read-out: ω3 IC50
T1 construct: from tissue; host or cells: rat (Wistar) kidney membrane fraction
Description: Experiment 1: Central (ω1,ω2) and Peripheral (ω3) Benzodiazepine Receptor Binding Assays
BZω1 and BZω2 receptor binding assays and the preparation of receptor membrane fractions therefor were carried out according to the method of Stephens, D. N. et al. [cf., J. Pharmacol. Exp. Ther., 253, 334-343 (1990)], and BZω3 receptor binding assay and the preparation of receptor membrane fraction therefor were done according to the method of Schoemaker, H. [cf, J. Pharmacol. Exp. Ther., 225, 61-69 (1983)] each with slight modification.
Receptor membrane fractions for ω1, ω2 and ω3 were prepared from the cerebellum (ω1), spinal cord (ω2) or kidney (ω3) in 7-8 week old male rats of Wistar strain, respectively, by the procedure described below.
After the cerebellum or spinal cord was homogenized with 20 volumes of ice-cold 50 mM Tris-citrate buffer (pH 7.1), the homogenate was centrifuged for 15 minutes at 40,000 g. The pellet obtained was washed 4 times by the same procedure, and frozen and stored for 24 hours at −60° C. The resulting pellet, after being thawed, washed with the buffer and centrifuged, was suspended in the buffer I for the binding assay (50 mM Tris-HCl buffer containing 120 mM NaCl, 5 mM KCl, 2 mM CaCl2 and 1 mM MgCl2; pH 7.4) and the suspension thus obtained (containing 1 g wet tissue/40 ml) was used for the BZω1 and BZω2receptor binding assays. On the other hand, the kidney was homogenized with 20 volumes of the ice-cold buffer II for the binding assay (50 mM Na-K phosphate buffer containing 100 mM NaCl; pH 7.4), and the mixture was filtered through 4 sheets of gauze, and centrifuged for 20 minutes at 40,000 g. The pellet obtained was suspended in the buffer II and the suspension (containing 1 g wet tissue/100 ml) was used for the binding assay as BZω3 receptor membrane source.
[^3H] Flumazenil (Ro 15-1788) (final concentration: 0.3 nM for ω1, and 1 nM for ω2) and flunitrazepam (final concentration: 10 μM) were used for the BZω1 or BZω2 receptor binding assays as the isotope-labeled and unlabeled ligands, respectively. For the BZω3 receptor binding assay, [^3H] 4′-chlorodiazepam (7-chloro-1,3-dihydro-1-methyl-5-(4-chlorophenyl)-2H-1,4-diazepin-2-one) (Ro 5-4864) (final concentration: 0.5 nM) and diazepam (final concentration: 100 μM) were used as the isotope-labeled and unlabeled ligands, respectively. Incubation was performed for 30 minutes at 37° C. in the BZω1 or BZω2 receptor binding assays, and for 150 minutes at 0° C. in the BZω3 receptor binding assay. The BZω1 or BZω2 receptor binding assays were carried out in the presence of bicuculline (final concentration: 100 μM).
The binding assay was performed by the following procedure. After adding each test compound at certain known concentrations, a [^3H] ligand, and the buffer I or II to each test tube, each assay was started by addition of membrane preparation (total volume of 1 ml). After incubation, the assay was terminated by filtration with suction through a Whatman GF/B glass fiber filter using a cell harvester (Brandel, USA). The filters were rapidly washed 3 times with 5 ml of ice-cold 50 mM Tris-HCl buffer (pH 7.7) for ω1 and ω2, or the buffer II for ω3, and transferred to scintillation vials containing 10 ml liquid scintillation cocktail (ACS-II, Amersham, USA). After being allowed to stand for a specific period, retained radioactivity was counted by a liquid scintillation spectrometer. Specific binding of [^3H] ligands was calculated as the difference between amounts of radioactivity bound in the presence and absence of excess unlabeled ligands. The concentration of the test compounds causing 50% inhibition of specific binding of the [3H] ligand (IC50) was determined by probit analysis.

Row | SMILES | melting point [°C] | IC50 (BZω3 receptor) [nM]
1 | CCN(Cc1ccccc1)C(=O)Cn1c(=O)n(CC)c2cnc(-c3ccccc3)nc21 [Example 150] | 134 to 136 | 0.81
2 | COc1ccc(-c2ncc3c(n2)n(C)c(=O)n3CC(=O)N(C)Cc2ccccc2)cc1 [Example 51] | 205 to 206 | 1.2
3 | CCCN(CCC)C(=O)Cn1c(=O)n(C)c2cnc(-c3ccc(OC)cc3)nc21 [Example 114] | 157 to 158 | 0.97
4 | CCN(C(=O)Cn1c(=O)n(C)c2nc(-c3cccs3)ncc21)c1ccccc1 [Example 39] | 236 to 238 | 1.3
5 | CN(Cc1ccccc1)C(=O)Cn1c(=O)n(C)c2cnc(-c3ccccc3)nc21 [Example 136, N-benzyl-7,8-dihydro-N-methyl-7-methyl-8-oxo-2-phenyl-9H-purin-9-acetamide] | 169 to 170 | 0.66
6 | CN(C(=O)Cn1c(=O)n(C)c2nc(-c3cccnc3)ncc21)c1ccccc1 [Example 37] | 209 to 211 | 2.8
7 | CCCN(C(=O)Cn1c(=O)n(C)c2nc(-c3ccccc3)ncc21)c1ccccc1 [Example 60] | 221 to 223 | –
8 | CCN(C(=O)Cn1c(=O)n(C)c2nc(-c3ccccc3)nc(-c3ccccc3)c21)c1ccccc1 [Example 41] | 185 to 187 | –
9 | CCn1c(=O)n(CC(=O)N(C)Cc2ccccc2)c2nc(-c3ccccc3)ncc21 [Example 140] | 147 to 149 | 0.87
10 | CCCN(CC)C(=O)Cn1c(=O)n(C)c2nc(-c3ccccc3)ncc21 [Example 34] | 150 to 151 | –
11 | CCCN(CCC)C(=O)Cn1c(=O)[nH]c2cnc(-c3ccc(F)cc3)nc21 [Example 81] | 213 to 215 | 5
12 | CCCCN(CCCC)C(=O)Cn1c(=O)n(C)c2nc(-c3ccccc3)ncc21 [Example 63] | 138 to 139 | –
13 | CCN(Cc1ccc(Cl)cc1)C(=O)Cn1c(=O)n(C)c2nc(-c3ccccc3)ncc21 [Example 77] | 198 to 199 | –
14 | CCCn1c(=O)n(CC(=O)N(C)c2ccccc2)c2nc(-c3ccccc3)ncc21 [Example 158] | 183 to 185 | –
15 | CCCCN(CCCC)C(=O)Cn1c(=O)n(C)c2cnc(-c3ccccc3)nc21 [Example 134] | 192 to 193 | –
16 | CN(C(=O)Cn1c(=O)[nH]c2cnc(-c3ccccc3)nc21)c1ccccc1 [Example 98] | 286 to 287 | –
17 | CCCN(C(=O)Cn1c(=O)n(CC)c2nc(-c3ccccc3)ncc21)c1ccccc1 [Example 61] | 168 to 170 | –
18 | CCCCN(CCCC)C(=O)Cn1c(=O)[nH]c2cnc(-c3ccccc3)nc21 [Example 95] | 196 to 198 | –
19 | CN(C)C(=O)Cn1c(=O)n(C)c2cnc(-c3ccccc3)nc21 [Example 127] | 262 to 264 | –
20 | CCN(C(=O)Cn1c(=O)n(C)c2nc(-c3ccc(Cl)cc3)ncc21)c1ccccc1 [Example 11] | 174 to 175 | –
21 | CCCn1c(=O)n(CC(=O)N(CC)CC)c2nc(-c3ccccc3)ncc21 [Example 126] | 141 to 143 | –
22 | CCN(CC)C(=O)Cn1c(=O)n(CC)c2cnc(-c3ccccc3)nc21 [Example 125] | 198 to 200 | –
23 | CCCCn1c(=O)n(CC(=O)N(CCC)CCC)c2nc(-c3ccccc3)ncc21 [Example 122] | 129 to 130 | –
24 | CCN(CC)C(=O)Cn1c(=O)n(C)c2cnc(-c3ccccc3)nc21 [Example 124] | 204 to 206 | –
25 | CCCN(CCC)C(=O)Cn1c(=O)n(CC)c2nc(-c3ccccc3)ncc21 [Example 33] | 134 to 135 | –
26 | CCCCN(C(=O)Cn1c(=O)n(C)c2nc(-c3ccccc3)ncc21)c1ccccc1 [Example 62] | 207 to 209 | –
27 | CCN(CC)C(=O)Cn1c(=O)n(CC)c2nc(-c3ccccc3)ncc21 [Example 25] | 148 to 150 | –
28 | CCN(CC)C(=O)Cn1c(=O)[nH]c2cnc(-c3ccccc3)nc21 [Example 85] | 222 to 224 | –
29 | CCn1c(=O)n(CC(=O)N(C)c2ccccc2)c2cnc(-c3ccccc3)nc21 [Example 8] | 160 to 161 | –
30 | CN(Cc1ccccc1)C(=O)Cn1c(=O)n(C)c2nc(-c3ccccc3)ncc21 [Example 48, N-benzyl-8,9-dihydro-9-methyl-N-methyl-8-oxo-2-phenyl-7H-purin-7-acetamide] | – | 0.68

More lines, now with the values ahead:

Row | melting point [°C] | IC50 (BZω3 receptor) [nM] | SMILES
31 | 166 to 167 | 0.99 | CCN(Cc1ccc(F)cc1)C(=O)Cn1c(=O)n(C)c2nc(-c3ccccc3)ncc21 [Example 74]
32 | 256 to 258 | 1.3 | CCCN(CCC)C(=O)Cn1c(=O)[nH]c2cnc(-c3ccc([N+](=O)[O-])cc3)nc21 [Example 83]
33 | 138 to 139 | – | CCCn1c(=O)n(CC(=O)N(CC)c2ccccc2)c2cnc(-c3ccccc3)nc21 [Example 17]
34 | 268 to 270 | – | CN(C(=O)Cn1c(=O)[nH]c2cnc(-c3cccnc3)nc21)c1ccccc1 [Example 84]
35 | 135 to 136 | – | CCCCN(CCCC)C(=O)Cn1c(=O)n(CC)c2cnc(-c3ccccc3)nc21 [Example 135]
36 | 165 to 167 | – | CCN(C(=O)Cn1c(=O)n(CC)c2nc(-c3ccccc3)ncc21)c1ccccc1 [Example 16]
37 | 125 to 127 | – | CCCN(CCC)C(=O)Cn1c(=O)n(CCC)c2cnc(-c3ccccc3)nc21 [Example 120]
38 | – | 0.85 | CCN(Cc1ccccc1)C(=O)Cn1c(=O)n(C)c2cnc(-c3ccccc3)nc21 [Example 146, N-benzyl-N-ethyl-7,8-dihydro-7-methyl-8-oxo-2-phenyl-9H-purin-9-acetamide]
39 | 140 to 142 | – | CCCn1c(=O)n(CC(=O)N(CC)c2ccccc2)c2nc(-c3ccccc3)ncc21 [Example 168]
40 | – | 0.35 | CCCN(CCC)C(=O)Cn1c(=O)[nH]c2cnc(-c3ccc(Cl)cc3)nc21 [Example 97, 2-(4-chlorophenyl)-7,8-dihydro-8-oxo-N,N-dipropyl-9H-purin-9-acetamide]
41 | 174 to 176 | – | CCCN(C(=O)Cn1c(=O)n(C)c2cnc(-c3ccccc3)nc21)c1ccccc1 [Example 169]
42 | 195 to 196 | – | CCN(C(=O)Cn1c(=O)n(C)c2nc(-c3cccnc3)ncc21)c1ccccc1 [Example 38]
43 | 207 to 209 | – | CCN(CC)C(=O)Cn1c(=O)n(C)c2nc(-c3ccccc3)ncc21 [Example 19]
44 | 187 to 189 | – | CCn1c(=O)n(CC(=O)N(C)C)c2nc(-c3ccccc3)ncc21 [Example 128]
45 | > 300 | – | CN(C)C(=O)Cn1c(=O)[nH]c2cnc(-c3ccccc3)nc21 [Example 86]
46 | 216 to 217 | – | CN(C(=O)Cn1c(=O)n(C)c2cnc(-c3cccnc3)nc21)c1ccccc1 [Example 171]
47 | 281 to 284 | – | CCN(C(=O)Cn1c(=O)[nH]c2nc(-c3ccccc3)ncc21)c1ccccc1 [Example 9]
48 | 154 to 155 | – | CCN(C(=O)Cn1c(=O)n(CC)c2cnc(-c3ccccc3)nc21)c1ccccc1 [Example 167]
49 | 204 to 206 | – | CN(C)C(=O)Cn1c(=O)n(C)c2nc(-c3ccccc3)ncc21 [Example 35]
50 | – | 0.55 | CN(Cc1ccc(F)cc1)C(=O)Cn1c(=O)n(C)c2nc(-c3ccccc3)ncc21 [Example 69, N-(4-fluorobenzyl)-8,9-dihydro-9-methyl-N-methyl-8-oxo-2-phenyl-7H-purin-7-acetamide]
51 | 258 to 260 | – | CCCN(C(=O)Cn1c(=O)[nH]c2cnc(-c3ccccc3)nc21)c1ccccc1 [Example 96]
